Data on seven compounds can be found in patent US12473534B2, “Composition for culturing peripheral blood monocyte-derived regulatory t cell and regulatory T cell culturing method using same” (Immunisbio Co., Ltd., priority 2019, dated 2025).

The subject of test [1] is regulatory T cells derived from peripheral blood mononuclear cells. Put plainly: Culturing of regulatory T cells from peripheral blood mononuclear cells with myricetin or superoxide dismutase, FACS analysis. It is filed as cell-based, human. The note with it: for CD4+, CD25+, CD127− (%): flow cytometry; for Total number of cells: start 2.0×10^7 cells, control 20.8. How it is done:
30 mL to 60 mL of human peripheral blood was collected using a 10 mL heparinized vacuum blood collection tube (BD Vacutainer TM). Then, 15 mL of a solution of Ficoll-Paque Plus (endotoxin tested, density 1.077 g/mL, GE Healthcare, USA) was put into a 50 mL lymphocyte separation tube (Leucosep, Greiner Bio-One, Swiss), and the solution was allowed to precipitate down to a glass membrane in the tube by centrifugation at 2000 rpm. The collected blood was transferred to a separation tube and centrifuged at 2500 rpm to separate the erythrocytes and granulocyte layer at the bottom, and the mononuclear cell layer and platelets at the top, thereby separating the blood components. After centrifugation, the plasma in the separated upper layer was inactivated in a water bath at 56° C. for 30 minutes. After centrifugation, the separated lymphocyte layer was collected using a sterilized pipette and collected in a 15 mL tube. After the 15 mL tube with the collected lymphocytes were centrifuged, the supernatant was removed. Cells were washed by adding 10 mL of a buffer solution (PBS) to the lymphocytes from which the supernatant had been removed and suspending the cells. The number of cells was measured from some of the suspension using a hemocytometer, and only lymphocytes were collected by centrifuging again. In this case, the number of harvested lymphocytes was measured to be 20×10^6 cells in total, and the harvested lymphocytes were cultured according to Example 1 below. After the lymphocytes prepared in Experimental Example 1 were taken, the lymphocytes were cultured in a T-flask (SPL Life Sciences) containing a culture solution and 0.2 to 2 mL of plasma in a 5% CO2 incubator at 37° C. for 4 to 14 days. Furthermore, in order to induce a reaction with an activation receptor present on the cell surface of regulatory T cells, 0.001 to 0.03 of one or more antibodies selected from the group consisting of anti-CD2, anti-CD3, anti-CD7, anti-CD8, anti-CD28, anti-CD30L, anti-CD40, anti-CD70, anti-CD80, anti-CD83 and anti-CD86; one or more cytokines selected from the group consisting of interleukin-2, interleukin-4, interleukin-7, interleukin-12, interleukin-15, interleukin-34 and TGF-β; 0 to 250 μM of myricetin; and 0 to 50 μM of superoxide dismutase were administered. That is, lymphocytes measured to be a total number of 2.0×10^7 cells were added to 5 to 100 mL of KBM502 medium including the above-described plasma, antibodies, cytokines, myricetin and superoxide dismutase, and cultured in a CO2 incubator for 4 to 14 days. To confirm the differentiation of regulatory T cells, staining was performed with an anti-human antibody or mouse isotype antibody (BD-Pharmingen San Jose, USA) under a condition of CD4+, CD25+ and CD127−, which are surface proteins of regulatory T cells, measured by flow cytometry, and then analyzed using BD Accuri C6 Plus.

Test [2] relates to regulatory T cells derived from peripheral blood mononuclear cells after removal of CD8+ cells. The test is described as follows: Culturing of regulatory T cells with myricetin and superoxide dismutase only or in combination after removal of CD8, FACS analysis. It is filed as cell-based, human. The note with it: for Total number of cells: control 18.2. The procedure: After the lymphocytes prepared in Experimental Example 1 were taken, the lymphocytes were cultured in a T-flask (SPL Life Sciences) containing a culture solution and 0.2 to 2 mL of plasma in a 5% CO2 incubator at 37° C. for 4 to 14 days. Furthermore, in order to induce a reaction with an activation receptor present on the cell surface of regulatory T cells, 0.001 to 0.03 of one or more antibodies selected from the group consisting of anti-CD2, anti-CD3, anti-CD7, anti-CD8, anti-CD28, anti-CD30L, anti-CD40, anti-CD70, anti-CD80, anti-CD83 and anti-CD86; one or more cytokines selected from the group consisting of interleukin-2, interleukin-4, interleukin-7, interleukin-12, interleukin-15, interleukin-34 and TGF-β; 0 to 250 μM of myricetin; and 0 to 50 μM of superoxide dismutase were administered. That is, lymphocytes measured to be a total number of 2.0×10^7 cells were added to 5 to 100 mL of KBM502 medium including the above-described plasma, antibodies, cytokines, myricetin and superoxide dismutase, and cultured in a CO2 incubator for 4 to 14 days. After peripheral blood mononuclear cells were separated, the cells were suspended in MACS buffer from Miltenyi Biotec and reacted with Human CD8 MicroBeads, and then CD8+ cells were removed using an LD column in a QuadroMACS Separator. Then, the cells were cultured using the same culturing method as in Example 1, and treated with myricetin and superoxide dismutase by selecting the treatment concentration having the highest regulatory T cell distribution in Example 1. To confirm the differentiation of regulatory T cells, staining was performed with an anti-human antibody or mouse isotype antibody (BD-Pharmingen San Jose, USA) under a condition of CD4+, CD25+ and CD127−, which are surface proteins of regulatory T cells, measured by flow cytometry, and then analyzed using BD Accuri C6 Plus.

[3] abbreviates: Day 0, after removal of CD8, flow cytometry.
[4] abbreviates: Day 7 of culture, after removal of CD8.
Setting [5] is: Day 7 of culture, after removal of CD8, control 92.3.

For `O=c1c(O)c(-c2cc(O)c(O)c(O)c2)oc2cc(O)cc(O)c12` [M1, myricetin], the “CD4+, CD25+, CD127− (%)” value amounted to 2.1% in test [1] (Day 0, before culture) and 22.4% in test [1] (Day 7 of culture, control 18.0). For the same compound, the “Total number of cells” value in test [1] (Day 7 of culture) is given as 26.8 ×10^7 cells.
In the same order, the values of `O=c1c(O)c(-c2cc(O)c(O)c(O)c2)oc2cc(O)cc(O)c12` [M2, myricetin] are 2.1%, 22.9% and 26.7 ×10^7 cells.
`O=c1c(O)c(-c2cc(O)c(O)c(O)c2)oc2cc(O)cc(O)c12` [M3, myricetin]: the “CD4+, CD25+, CD127− (%)” value was determined as 0.4% in test [2] (setting [3]); 97.6% in test [2] (setting [5]); 2.1% in test [1] (Day 0, before culture); 24.7% in test [1] (Day 7 of culture, control 18.0). Also, the “Total number of cells” value is reported as 20.8 ×10^7 cells in test [2] (setting [4]) and 28.6 ×10^7 cells in test [1] (Day 7 of culture).
Turning to `O=c1c(O)c(-c2cc(O)c(O)c(O)c2)oc2cc(O)cc(O)c12` [M4, myricetin], the “CD4+, CD25+, CD127− (%)” value came out at 2.1% in test [1] (Day 0, before culture) and 23.3% in test [1] (Day 7 of culture, control 18.0). Besides, the “Total number of cells” value in test [1] (Day 7 of culture) is on record as 25.6 ×10^7 cells.
In the case of superoxide dismutase [S1], the “CD4+, CD25+, CD127− (%)” value in test [2] (setting [3]) is recorded as 0.7%; in test [2] (setting [5]), 97.6%; in test [1] (Day 0, before culture) it was 1.2%; in test [1] (Day 7 of culture, control 18.0) it was 37.4%. In addition, the “Total number of cells” value is on record as 21.5 ×10^7 cells in test [2] (setting [4]) and 22.5 ×10^7 cells in test [1] (Day 7 of culture).
Consider superoxide dismutase [S2], for which the “CD4+, CD25+, CD127− (%)” value came to 1.2% in test [1] (Day 0, before culture) and 37.1% in test [1] (Day 7 of culture, control 18.0). The “Total number of cells” value in test [1] (Day 7 of culture) is 25.2 ×10^7 cells.
The corresponding values for superoxide dismutase [S3] are 1.2%, 36.0% and 24.4 ×10^7 cells.
